The values that follow come from patent publication US20230035479A1, “METHODS AND COMPOSITIONS FOR REDUCING HAIR GREYING” (President and Fellows of Harvard College, priority 2019, published 2023).

Assay [1] deals with melanocyte stem cells (MeSCs). As to the kind of experiment: MeSC numbers in hair follicles, TRP2 immunofluorescence or membrane GFP tracing. Conditions: for MeSC preservation in RTX-injected animals: topical 5 mg/kg, until 48 hours post RTX injection, full anagen.
Procedure: For RTX injection, mice received injections of RTX (30-100 μg/kg) in the flank for 1-3 days as described previously [15, 16, 51-56]. […] Control mice were treated with the vehicle only. RTX injection was done either in full anagen (P31-P36) or in 1st telogen (P21). […] Mice were treated for three days (P28-P30). […] RTX was given at Anagen VI (P31˜P36).
Another assay has as its system C57BL/6J mice. The assay is classed as in vivo, mouse.
The test system of a further assay is mature melanocytes. The experiment in a line: Differentiated/mature melanocytes and hair bulb cells, immunofluorescence. The assay is classed as in vivo, mouse. Conditions: full anagen; for proliferation of cells in the hair bulb: RTX-injected animals, topical CDK inhibitors. The protocol:
Loss of hair pigmentation can be due to defects in melanin synthesis, loss of differentiated melanocytes, or problems in MeSC maintenance. To understand how stress impacts the melanocyte lineage, RTX was injected into mice in anagen, when both MeSCs and differentiated melanocytes were present but located within distinct compartments—MeSCs were near to the bulge while differentiated melanocytes were at the hair bulb (FIG. 1E). […] These differentiated melanocytes continued to generate pigments, and the hair coat remained black (FIGS. 6F-6G). When hair follicles in the RTX-injected animals entered catagen and telogen, many have lost all MeSCs (FIG. 1E, Telo). Subsequently, when the next round of anagen initiated, differentiated melanocytes were not produced to color new hair shafts, and unpigmented hairs emerged (FIG. 1E, 2nd Ana, FIG. 6H). […] In this case, unpigmented hairs appeared as soon as new hairs emerged in the following anagen (FIGS. 7A-7B). […] MeSCs were also lost or reduced in mice subjected to restraint stress or chronic unpredictable stress (FIG. 7C). Since stress depleted MeSCs, the loss of hair pigmentation in all three conditions was permanent (FIG. 7D).
Quiescence is a key feature of many somatic stem cells. Loss of quiescence has been postulated to cause MeSC loss in Bcl2 mutants. To examine if stress alters MeSCs quiescence, RTX or norepinephrine was injected into mice that had entered full anagen, when MeSCs are normally quiescent. A dramatic increase in the number of proliferating MeSCs was seen within 24 hours after RTX or norepinephrine injection—about 50% of MeSCs became positive for Phospho-Histone H3, an M phase marker (FIG. 4B). This number is in sharp contrast to the MeSC proliferation seen in early anagen (˜6%), the only stage when MeSCs proliferate to self-renew (FIG. 11E).
(§1) Mouse skin samples were fixed using 4% paraformaldehyde (PFA) for 15 minutes at room temperature, washed 6 times with PBS, and immersed in 30% sucrose overnight at 4° C. Samples were then embedded in OCT (Sakura Finetek). 35˜50 μm sections were fixed in 4% paraformaldehyde (PFA) for 2 minutes and washed with PBS and PBST. Slides were then blocked using blocking buffer (5% donkey serum; 1% BSA, 2% cold water fish gelatin in 0.3% Triton in PBS) for 1 hour at room temperature, followed by staining with primary antibodies overnight at 4° C. and secondary antibody for 4 hours at room temperature. For sympathetic nerve density quantification, 90 μm sections were used. EdU was developed for 1 hour using the Click-It reaction according to manufacturer instructions (Thermo Fisher Scientific). TUNEL assay was performed according to manufacturer instructions (Roche). Fontana—Masson staining was performed according to manufacturer instructions (Market Lab ML7255). Antibodies used: TRP2 (Santa Cruz 10451, 1:800), tyrosine hydroxylase (rabbit, Millipore AB152, 1:1000 or sheep, Millipore AB1542, 1:150-1:300), c-Fos (Abcam, 190289, 1:1000), γ-H2AX (Cell Signaling, 9718, 1:400), phospho-histone H3 (rabbit, Cell Signaling Technology 3377S, 1:500), cleaved caspase 3 (rabbit, Cell Signaling Technology 9664S, 1:400), GFP (rabbit, Abcam ab290, 1:1000 or chicken, Ayes labs GFP-1010, 1:200), CD3 (eBioscience 14-0032-81, 1:800), CD11b (eBioscience 14-0112-81, 1:800), Phospho-CREB (Cell Signaling 9198, 1:800), MITF (Abcam ab12039, 1:400).

For assay [2], the system named is melanocyte stem cells (MeSCs). The experiment in a line: MeSC proliferation, Phospho-Histone H3 immunofluorescence. Conditions: for MeSC quiescence in RTX-injected animals: topical 5 mg/kg, until 48 hours post RTX injection.
Procedure: For RTX injection, mice received injections of RTX (30-100 μg/kg) in the flank for 1-3 days as described previously [15, 16, 51-56]. […] Control mice were treated with the vehicle only. RTX injection was done either in full anagen (P31-P36) or in 1st telogen (P21). […] RTX was given at Anagen VI (P31˜P36).
All images were acquired using a Zeiss LSM 880 confocal microscope or Keyence microscope using ×20 or ×40 magnification lenses. Images are presented as Maximum Intensity Projection images. For colocalization analysis, images are presented as a single Z stack.
For the next assay, the system named is sympathetic neurons. The experiment in a line: c-FOS immunofluorescence in sympathetic ganglia. It is filed as in vivo, mouse. Conditions: TH-CreER; Gq-DREADD mice injected with CNO.
The target in another assay is Gq-DREADD (Homo sapiens, UniProt P20309, A239G/Y149C). As to the kind of experiment: Sympathetic nerve activation with Gq-DREADD by intradermal CNO.
Chain of Gq-DREADD (P20309 whole entry Y149C/A239G): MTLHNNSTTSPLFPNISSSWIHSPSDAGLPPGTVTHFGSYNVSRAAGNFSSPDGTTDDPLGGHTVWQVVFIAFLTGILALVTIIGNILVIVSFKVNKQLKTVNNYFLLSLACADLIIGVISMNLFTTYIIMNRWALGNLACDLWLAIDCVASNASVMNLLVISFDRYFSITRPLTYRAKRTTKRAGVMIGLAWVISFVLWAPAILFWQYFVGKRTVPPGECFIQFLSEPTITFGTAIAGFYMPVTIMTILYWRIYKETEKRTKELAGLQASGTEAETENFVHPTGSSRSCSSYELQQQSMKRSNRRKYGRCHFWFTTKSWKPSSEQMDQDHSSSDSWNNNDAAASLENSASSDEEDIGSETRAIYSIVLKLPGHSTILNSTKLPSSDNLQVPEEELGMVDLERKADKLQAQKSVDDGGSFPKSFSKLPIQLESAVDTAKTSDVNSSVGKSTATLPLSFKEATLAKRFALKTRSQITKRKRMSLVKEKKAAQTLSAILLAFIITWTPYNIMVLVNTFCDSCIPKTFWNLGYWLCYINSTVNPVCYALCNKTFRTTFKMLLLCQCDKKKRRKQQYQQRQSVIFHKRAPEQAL
For the next assay, the system named is human hair follicles. As to the kind of experiment: Cultured human hair follicles, pigmented bulge or outer root sheath cells. The assay is classed as cell-based. Conditions: 24 hours. The method, then: (§2) FIG. 14C provides quantification of the proportion of follicles that contain pigmented bulge or outer root sheath cells vs those lacking such pigmented cells outside of the bulb region. Human discarded hair bearing skin was cultured for 3 days with single hairs being isolated and grown in semi solid agarose William E medium with vehicle or norepinephrine (0.1 mM) for 24 hours. The cells were assessed after culture to identify those that were pigmented from those that were not. The presence of pigmented cells indicates senescence of melanocyte stem cells. Signal in vehicle control likely reflects the middle-age of the donor follicles.
Hair follicles from discarded scalp skin of […] was cultured for 3 days. Single hairs were isolated and grown in a semi agarose William E medium with vehicle, norepinephrine (NE) (0.1 mM), or NE (0.1 mM) +butoxamine (0.1 mM) (β2 blocker) for 24 hours. The graph indicates the proportion of follicles containing (or lacking) pigmented melanocytes (see arrows) in the bulge or outer root sheath locations, indicating melanocyte stem cell differentiation/senescence.

The test system of assay [3] is melanocyte stem cells (MeSCs). As to the kind of experiment: Corticosterone feeding in drinking water. Conditions: corticosterone elevated via feeding, 35 μg/ml in drinking water, three days.
Procedure: Since all stressors led to elevated corticosterone and norepinephrine in the blood, it was considered if these stress-induced circulating factors played a role in stress-induced MeSC loss.
Control mice were treated with the vehicle only. […] Mice were treated for three days (P28-P30).
Assay [4] has as its system melanocyte stem cells (MeSCs). As to the kind of experiment: Apoptosis (active caspase-3, TUNEL) and DNA damage (gamma-H2AX) in MeSCs. The assay is classed as in vivo, mouse. The protocol: Radiation causes DNA damage in MeSCs, leading to their differentiation within the niche.
as §1

Assay [5] has as its system primary human melanocytes. As to the kind of experiment: qRT-PCR in cultured primary human melanocytes treated with norepinephrine. The assay is classed as cell-based. The method, then:
(§3) Primary human melanocytes were derived from neonatal foreskin as previously described and cultured in Medium 254 (Invitrogen, Thermo Fisher Scientific). Melanocytes (passages 2 and 4) were starved for 24 hours in HAM's F-10 +1% penicillin/streptomycin/glutamine before adding NE (10 uM).
The cDNA libraries were synthesized using Superscript IV VILO master mix with ezDNase (Thermo Fisher). Quantitative real time PCR was performed using power SYBR green (Thermo Fisher) in an ABI QuantStudio6 Flex qPCR instrument. Ct values were normalized to an internal control of beta-actin.

In another assay the test system is CREB/ATF1. As to the kind of experiment: CREB/ATF1 phosphorylation in human primary melanocytes. Conditions: 10 uM, after 15 minutes. It is filed as cell-based. The protocol: as §2, §3
In another assay the target is ADRB2 on MeSCs (Mus musculus, UniProt P18762). The experiment in a line: Hair greying after intradermal norepinephrine injection.
Chain of ADRB2 on MeSCs (P18762 whole entry): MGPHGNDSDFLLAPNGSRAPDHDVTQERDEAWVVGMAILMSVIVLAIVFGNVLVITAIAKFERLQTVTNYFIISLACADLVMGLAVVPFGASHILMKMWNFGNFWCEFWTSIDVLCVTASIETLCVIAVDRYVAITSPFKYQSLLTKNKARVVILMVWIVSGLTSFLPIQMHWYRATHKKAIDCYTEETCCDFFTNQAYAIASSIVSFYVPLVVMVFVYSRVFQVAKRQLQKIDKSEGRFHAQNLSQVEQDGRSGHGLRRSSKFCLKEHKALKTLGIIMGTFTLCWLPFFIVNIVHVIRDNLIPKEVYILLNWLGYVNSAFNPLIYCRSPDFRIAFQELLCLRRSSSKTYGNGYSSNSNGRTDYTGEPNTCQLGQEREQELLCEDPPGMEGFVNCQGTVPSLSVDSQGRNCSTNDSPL
[6] abbreviates: sympathetic nerve ablation, 100 mg/kg intraperitoneally daily P18 to P22.
Setting [7] is: topical 5 mg/kg in ethanol, 48 h before to 48 h after RTX.

Where two headings read alike, the source gives them in different places.

Procedure for ADRB2 on MeSCs: To test if elevated norepinephrine was sufficient to cause hair greying in the absence of stress, norepinephrine was introduced locally to the skin via intradermal injections.
For tamoxifen treatment, tamoxifen was diluted in corn oil to a final concentration of 20 mg/ml. To induce recombination, 20 mg/kg was injected intraperitoneally once per day for 4-7 days. […] 50 μm was injected intradermally into experimental animals together with fluorescent beads at full anagen (P31˜P36). Control animals were injected with equivalent volume of vehicle (0.1% ascorbic acid in 0.9% sterile NaCl) with fluorescent beads. The injection sites were marked using water resistant ink.
(§4) For intradermal injection experiments (NE or CNO), unpigmented hairs were quantified by plucking ˜100 hairs from each injection site (marked by water resistant ink at the time of injection), and the percentage of white hairs were calculated by dividing the number of white hairs by the total number of hairs plucked.
Source text for Gq-DREADD: To determine if sympathetic nerve activation in the absence of stress is sufficient to drive MeSC loss, a chemogenetic approach was taken using the Designer Receptor Exclusively Activated by Designer Drugs (DREADDs) system [3, 4]. Gq-DREADD is an artificial Gq-protein coupled receptor activated by the inert molecule Clozapine N-Oxide (CNO) but not by endogenous ligands. Activation of Gq-DREADD leads to intracellular calcium release and neuronal firing. TH-CreER; CAG-lsl-Gq-DREADD; Rosa-mT/mG mice were generated, which allowed for artificial activation of sympathetic nerves with CNO (FIG. 3D).
Control mice were treated with the vehicle only. […] For tamoxifen treatment, tamoxifen was diluted in corn oil to a final concentration of 20 mg/ml. To induce recombination, 20 mg/kg was injected intraperitoneally once per day for 4-7 days. For mosaic induction of Tyr-CreER and TH-CreER, 20 mg/kg tamoxifen was injected intraperitoneally once per day for 3 days. […] Control animals were injected with equivalent volume of vehicle (0.1% ascorbic acid in 0.9% sterile NaCl) with fluorescent beads. The injection sites were marked using water resistant ink. […] For Induction of Gq-DREADD, 50 μl CNO (1 mg/ml in 0.9% sterile saline) was injected intradermally into experimental animals together with fluorescent beads at full anagen (P31˜P36). Control animals were injected with equivalent volume of vehicle (0.9% sterile saline) together with fluorescent beads.
as §4

For the compound `NCCc1cc(O)c(O)cc1O` [6-OHDA, 6-hydroxy dopamine], the “effect on RTX-induced MeSC loss” value in assay [1] (setting [6]) was “blocked RTX-induced hair greying and MeSC loss”. In the assay with C57BL/6J mice (setting [6]), the “effect on RTX-induced hair greying” value is on record as “blocked RTX-induced hair greying”.

With `O=C(NC1CCNCC1)c1n[nH]cc1NC(=O)c1c(Cl)cccc1Cl` [AT7519, N-(4-Piperidinyl)-4-(2,6-dichlorobenzoylamino)-1H-pyrazole-3-carboxamide], in assay [1], the “MeSC preservation in RTX-injected animals” value is on record as “preserved in the niche”. Moreover, in the assay on mature melanocytes, the “proliferation of cells in the hair bulb” value is listed as “remained largely normal”. In [2], the “MeSC quiescence in RTX-injected animals” value is on record as “remained quiescent”. The “effect on RTX-induced hair greying” value in the assay with C57BL/6J mice (setting [7]) is on record as “inhibits RTX-induced hair greying”.

With `C[N+]1([O-])CCN(C2=Nc3cc(Cl)ccc3Nc3ccccc32)CC1` [CNO, Clozapine N-Oxide], the “c-FOS activation in sympathetic ganglia” value with sympathetic neurons was “induced c-FOS activation in sympathetic ganglia”. Besides, at Gq-DREADD (TH-CreER, Gq-DREADD mice), the “hair greying at CNO injection sites” value is “led to loss of MeSCs and hair greying at the sites where CNO was injected”; the “loss of MeSCs at CNO injection sites” value is given as “led to loss of MeSCs”. In addition, the “MeSC loss with mosaic TH-CreER activation” value at Gq-DREADD (low dose of tamoxifen) is given as “resulted in MeSC loss only in hair follicles innervated by DREADD-positive nerve fibres”.

Regarding `CN1CC[C@H](c2c(O)cc(O)c3c(=O)cc(-c4ccccc4Cl)oc23)[C@H](O)C1` [Flavopiridol], the “MeSC preservation in RTX-injected animals” value in assay [1] is reported as “preserved in the niche”. The “proliferation of cells in the hair bulb” value with mature melanocytes was “remained largely normal”. For the same compound, the “MeSC quiescence in RTX-injected animals” value in assay [2] was “remained quiescent”. For the same compound, the “effect on RTX-induced hair greying” value in the assay on C57BL/6J mice (setting [7]) is given as “inhibits RTX-induced hair greying”.

For the compound `COc1ccc(OC)c(C(O)C(C)NC(C)(C)C)c1` (centres unmarked) [butoxamine], the “effect on norepinephrine-induced melanocyte pigmentation/senescence” value in the assay with human hair follicles (NE 0.1 mM + butoxamine 0.1 mM, follicles of person) is given as “prevents norepinephrine-induced melanocyte pigmentation/senescence”.

As for `C[C@]12C[C@H](O)[C@H]3[C@@H](CCC4=CC(=O)CC[C@@]43C)[C@@H]1CC[C@@H]2C(=O)CO` [corticosterone], in [3], the “changes in MeSCs” value is listed as “no changes in MeSCs or hair pigmentation” and the “changes in hair pigmentation” value is “no changes in MeSCs or hair pigmentation”.

Regarding `N=C(N)NCCN1CCCCCCC1` [guanethidine], the “effect on MeSC loss upon RTX injection” value in [1] (mouse, in vivo) is “suppressed hair greying and MeSC loss”.

For the compound `NC[C@H](O)c1ccc(O)c(O)c1` [norepinephrine], the “proliferation or apoptosis in mature melanocytes” value in the assay with mature melanocytes (after injection) is “no changes in proliferation or apoptosis”. Further, the “active caspase-3 or TUNEL signals in MeSCs” value in [4] (before MeSC depletion from the niche, 1 day after injection) is listed as “failed to detect active caspase-3 or TUNEL signals”. Moreover, in [4] (following injection), the “gamma-H2AX foci (DNA damage) in MeSCs” value is reported as “failure to detect gamma-H2AX foci”. In [5] (cultured human melanocyte cells, NE 10 uM), the “expression of proliferation and differentiation genes” value is “rapid induction of proliferation genes like Cdk2, and differentiation genes like Mitf and Tyr”. In addition, the “expression of MITF and MITF target genes” value in [5] (cultured primary human melanocytes) is “induces MITF and multiple MITF target genes”. Further, the “melanocyte stem cell pigmentation in human hair follicles” value in the assay with human hair follicles (norepinephrine 0.1 mM) is given as “heavy norepinephrine-induced melanocyte stem cell pigmentation”. For the same compound, the “phosphorylation/activation of CREB/ATF1” value in the assay with CREB/ATF1 is listed as “induces transient phosphorylation/activation of CREB/ATF1”. Moreover, the “hair greying at injection sites” value on ADRB2 on MeSCs (HFSC-specific adrb2 knockout mice) was “promoted hair greying at the injection sites”; at ADRB2 on MeSCs (MeSC-specific adrb2 knockout mice) it was “failed to cause hair greying”; on ADRB2 on MeSCs (wild type mice, absence of stress), “promoted hair greying at the injection sites”. The “MeSCs positive for Phospho-Histone H3” value in [2] (within 24 hours after injection, full anagen) was “about 50%”.
